Molecules are shown by their SMILES.

The target of test [1] is CDK4/Cyclin D1 (Homo sapiens (Human), UniProt P11802). The test is described as follows: TR-FRET kinase inhibition assay, CDK4/Cyclin D1. The format is biochemical. The following applies: 1 mM ATP, 0.15 μM Rb (Ser780)-biotin substrate, read-out: CDK4D1 IC50. In short, it runs like this: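 Kinase was preincubated with compound for 60 min at room temperature, then reacted with ATP and Rb (Ser780)-biotin substrate for 120 min. IC50 came from a four-parameter logistic fit.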
Sequence of CDK4/Cyclin D1 (P11802 whole entry): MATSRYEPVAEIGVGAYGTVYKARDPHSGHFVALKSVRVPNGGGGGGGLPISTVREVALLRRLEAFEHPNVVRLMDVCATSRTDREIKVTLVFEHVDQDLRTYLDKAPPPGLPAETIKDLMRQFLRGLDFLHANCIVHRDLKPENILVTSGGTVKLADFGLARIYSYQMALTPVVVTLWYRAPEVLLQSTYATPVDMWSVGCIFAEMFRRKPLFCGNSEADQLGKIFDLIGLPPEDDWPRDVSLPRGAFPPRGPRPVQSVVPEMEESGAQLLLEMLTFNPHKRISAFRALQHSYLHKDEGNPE
Sequence of CDK4/Cyclin D1 (P24385 whole entry partner): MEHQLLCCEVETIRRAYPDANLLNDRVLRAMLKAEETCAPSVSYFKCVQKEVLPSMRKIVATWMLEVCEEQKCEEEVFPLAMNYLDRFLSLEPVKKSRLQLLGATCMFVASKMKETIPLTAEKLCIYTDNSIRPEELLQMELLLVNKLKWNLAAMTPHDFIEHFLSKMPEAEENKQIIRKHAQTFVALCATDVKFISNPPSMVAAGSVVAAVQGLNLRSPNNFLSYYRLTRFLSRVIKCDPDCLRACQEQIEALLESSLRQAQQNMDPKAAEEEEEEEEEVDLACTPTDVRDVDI
In general terms: TR-FRET usually uses a lanthanide donor and a delayed reading to cut background.

In test [2] the target is CDK6/Cyclin D3 (Homo sapiens (Human), UniProt Q00534). The test is described as follows: TR-FRET kinase inhibition assay, CDK6/Cyclin D3. The format is biochemical. The conditions noted are these: 1 mM ATP, 0.15 μM Rb (Ser780)-biotin substrate, read-out: CDK6D3 IC50. In short, it runs like this:
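Kinase preincubated 60 min at room temperature with 0–10 μM compound; reaction started with 1 mM ATP and 0.15 μM Rb (Ser780)-biotin, run 120 min at room temperature in HEPES pH 7.0, 50 mM MgCl2. pRb detected by TR-FRET (665/620 nm ratio); IC50 from four-parameter logistic fit.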

Sequence of CDK6/Cyclin D3 (Q00534 whole entry): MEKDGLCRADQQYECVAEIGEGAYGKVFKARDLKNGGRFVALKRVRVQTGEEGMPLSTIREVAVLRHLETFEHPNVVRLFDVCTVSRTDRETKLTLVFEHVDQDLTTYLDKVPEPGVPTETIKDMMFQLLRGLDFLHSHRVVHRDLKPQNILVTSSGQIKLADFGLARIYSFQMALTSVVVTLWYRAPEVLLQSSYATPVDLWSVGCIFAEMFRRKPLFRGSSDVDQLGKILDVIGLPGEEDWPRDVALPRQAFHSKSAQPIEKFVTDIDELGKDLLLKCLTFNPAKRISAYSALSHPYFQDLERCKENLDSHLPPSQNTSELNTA
Sequence of CDK6/Cyclin D3 (P30281 whole entry partner): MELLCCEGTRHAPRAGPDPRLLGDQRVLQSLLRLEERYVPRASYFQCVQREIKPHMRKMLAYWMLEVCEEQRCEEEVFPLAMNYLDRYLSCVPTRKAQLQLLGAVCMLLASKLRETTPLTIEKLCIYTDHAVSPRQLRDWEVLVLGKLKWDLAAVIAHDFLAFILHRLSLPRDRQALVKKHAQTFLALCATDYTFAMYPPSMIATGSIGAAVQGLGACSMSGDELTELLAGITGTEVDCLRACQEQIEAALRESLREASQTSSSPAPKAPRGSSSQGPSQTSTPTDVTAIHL

Turning to `CC(C)n1c(CO)cc(=O)c2ccc(-c3nc(N[C@@H]4CCOC[C@H]4O)ncc3F)cc21` [Example 17, 7-(5-fluoro-2-(((3S,4R)-3-hydroxytetrahydro-2H-pyran-4-yl)amino)pyrimidin-4-yl)-2-(hydroxymethyl)-1-isopropylquinolin-4(1H)-one], the 50% inhibitory concentration (IC50) stood at 0.0075 µM in test [1] and 0.12 µM in test [2].

In the case of `CC(C)n1c(CN2CCC[C@]3(CCN(C)C3=O)C2)cc(=O)c2ccc(-c3nc(N[C@@H]4CCOC[C@H]4O)ncc3F)cc21` [Example 52, (S)-7-((7-(5-fluoro-2-(((3S,4R)-3-hydroxytetrahydro-2H-pyran-4-yl)amino)pyrimidin-4-yl)-1-isopropyl-4-oxo-1,4-dihydroquinolin-2-yl)methyl)-2-methyl-2,7-diazaspiro[4,5]decan-1-one], the half-maximal inhibitory concentration (IC50) in test [1] is 0.0064 µM; in test [2], 0.467 µM.

Regarding `CC(C)n1c(CN2CCS(=O)(=O)CC2)cc(=O)c2ccc(-c3nc(N[C@@H]4CCOC[C@H]4O)ncc3F)cc21` [Example 83, 2-((1,1-dioxidothiomorpholino)methyl)-7-(5-fluoro-2-(((3S,4R)-3-hydroxytetrahydro-2H-pyran-4-yl)amino)pyrimidin-4-yl)-1-isopropylquinolin-4(1H)-one], the half-maximal inhibitory concentration (IC50) in test [1] was found to be 0.032 µM; in test [2], 0.928 µM.

`CC(C)n1c(CN[C@H]2CCOC2)cc(=O)c2ccc(-c3nc(N[C@@H]4CCOC[C@H]4O)ncc3F)cc21` [Example 67, 7-(5-fluoro-2-(((3S,4R)-3-hydroxytetrahydro-2H-pyran-4-yl)amino)pyrimidin-4-yl)-1-isopropyl-2-((((S)-tetrahydrofuran-3-yl)amino)methyl)quinolin-4(1H)-one]: the results for the concentration for half-maximal inhibition (IC50) in test [1] and in test [2] were 0.021 µM and 0.483 µM, respectively.

As a reminder, the IC50 is the concentration that inhibits the measured activity by half.

Source of the values: patent US20250136586A1, “Substituted 7-(Pyrimidin-4-yl)Quinolin-4(1H)-One Compounds as Cyclin Dependent Kinase Inhibitors” (BeiGene, Ltd., priority 2022, published 2025).
